US4996227A, “3-(heteroarylalkyene)- and 3-(arylalkylene)-2,4(3H,5H)-heterocyclic diones as cancer chemotherapy drugs” (priority 1989, dated 1991)

Key:
Type in all cases: cell-based
[1] = test system: KS62 strain stem-cell human leukemia cells; assay: Inhibition of human leukemia cell growth in vitro, as done in Example 3; settings: for inhibition at 1 µg/mL / inhibition at 5 µg/mL / inhibition at 10 µg/mL: Homo sapiens
Protocol: A conventionally available cell line (K562) derived from human chronic granulocytic leukemia was employed in an in vitro procedure. The leukemia cell line was cultured in a suspension of RPMI 1640 plus 10% fetal calf serum. All initial cell concentrations for the cultures were 0.65 times 10^5 cells/ml. Four separate suspension cultures were employed with the first suspension culture having no additions. The second suspension culture included 100 microliters of the solvent DMSO per 10 ml of culture (control). The third culture contained 1 ug/ml of 3[[5-methyl-2 thienyl]methylene]-2, 4 (3H, 5H) furandione and the fourth culture contained 1 ug/ml of 3[[3-methyl-2-thienyl]methylene]-2, 4 (3H, 5H) furandione. The cell concentration of each of the four cultures was determined. After three days and again after five days.
In this example, aliquots of 1.0, 5.0 and 10.0 mcg/ml of each of the family compounds was prepared and assayed against KS62 strain stem-cell human leukemia cells in an in vitro procedure as done in Example 3 above.

human tumor H5337 COLON = assay: Human Tumor Stem Cell Assay, colony growth after one hour exposure; settings: 1 h
Excerpt: (§1) The in vitro Human Tumor Stem Cell Assay procedure described as follows has several advantages for testing the effectiveness of chemotherapy drugs such as the 3-(heteroarylalkylene)-2,4(3H,5H)-furandiones. The first advantage is that fresh tumor cells from a variety of tumor types were used rather than a small number of cell lines which have undergone severe selection pressures as they are passed in vitro. The second advantage is that only the anchorage-independent tumor cells will form colonies in soft agar so that any non-malignant cells present in the sample will not form colonies. Perhaps the most important advantage, however, is the emphasis on cells which have the ability to form colonies. These cells, which are generally called stem cells, usually comprise only a small percentage of all tumor cells. They are thought to be the most important cells for growth and distant spread of a tumor. In particular, these cells have the potential to leave the primary tumor and form new tumors at distant sites (called metastases). It is the effectiveness against these very important stem cells that the Human Tumor Stem Cell Assay measures.
(§2) One of the 3-(heteroarylalkylene)-2,4(3H,5H)-furandione compounds, 3-[(5-methyl-2-thienyl) methylene]-2,4(3H,5H)-furandione was evaluated against a series of 10 human tumors in the in vitro Human Tumor Cell Assay, along with conventional and standard chemotherapy agents.
(§3) In the procedure, a single cell suspension was prepared from tumors excised from patients during therapeutic or diagnostic surgical procedures. The human tumor cells were exposed to known anticancer drugs or to [(5-methyl-2-thienyl)methylene]-2,4 (3H, 5H)-furandione at a low (0.2 mcg/ml) or a high (1.0 mcg/ml) concentration for one hour. […] The suspension was washed with tissue culture medium to remove the drug.
(§4) The suspension was then cultured in a double soft agar suspension. Control cells which had been treated identically, except for exposure to the drugs, were also cultured. After one to two weeks, both the tumor cells and the control cells formed colonies in the soft agar which were enumerated under a microscope. The number of colonies grown from the drug-treated cells was compared to the number of colonies grown from the control cells, and the percentage growth after exposure to the drug was calculated.
(§5) The results are illustrated in Table 1, wherein the various numbers indicate the percentage of growth. For example, a small number like 6 means that the number of colonies is only 6% of the number without addition of the compound. On the other hand, a large number like 120 means that the number of colonies is 20% greater with the compound than without.
(§6) Of the nine tumors for which the higher concentration (1.0 mcg/ml) of the furandione was used, five gave inhibition of colony growth corresponding to borderline sensitive (30-50% growth) and four gave inhibition corresponding to sensitivity (0-30% growth). Clinical drugs are normally tested at 10% of their peak plasma concentration. For the standard chemotherapy drugs shown in Table 1, the low concentration (LO) corresponds to this 10% level, and the high concentration (HI) is at 50% of the peak plasma concentration. Of the same nine tumors, only two would have been rated as sensitive or borderline sensitive to any of the other clinical drugs tested.

[2] = test system: human tumor H5322 STOMACH; assay: as above; settings: 1 h
Excerpt: as §1, §2, §3, §4, §5, §6

human tumor H5319 BREAST = assay: as above; settings: HI: furandione 1.0 mcg/ml; standard drugs 50% of peak plasma concentration; 1 h
Excerpt: as §1, §2, §3, §4, §5, §6

human tumor H5331 OVARY = assay: as above; settings: 1 h
Excerpt: as §1, §2, §3, §4, §5, §6

[3] = test system: human tumor H5325 SARCOMA; assay: as above; settings: 1 h
Excerpt: as §1, §2, §3, §4, §5, §6

human tumor H5349 BREAST = assay: as above; settings: 1 h
Excerpt: as §1, §2, §3, §4, §5, §6

human tumor H5318 OVARY = assay: as above; settings: HI: furandione 1.0 mcg/ml; standard drugs 50% of peak plasma concentration; 1 h
Excerpt: as §1, §2, §3, §4, §5, §6

human tumor H5330 THYMUS = assay: as above; settings: 1 h
Excerpt: as §1, §2, §3, §4, §5, §6

[4] = LO: furandione 0.2 mcg/ml, standard drugs 10% of peak plasma concentration
[5] = HI: furandione 1.0 mcg/ml, standard drugs 50% of peak plasma concentration

| Compound | inhibition at 1 µg/mL ([1]; 1.0 mcg/ml) [%] | inhibition at 5 µg/mL ([1]; 5.0 mcg/ml) [%] | inhibition at 10 µg/mL ([1]; 10.0 mcg/ml) [%] | also measured |
| --- | --- | --- | --- | --- |
| CC1(C)OC(=O)C(=Cc2ccc(I)s2)C1=O [Compound 59, 3-[(5-iodo-2-thienyl)methylene]-5.5-dimethyl-2,4 (3H)furandione] | 1 | 37 | 94 | – |
| CC1(C)OC(=O)C(=Cc2ccc(Br)s2)C1=O [Compound 60] | 0 | 96 | 100 | – |
| O=C1COC(=O)C1=CC=Cc1ccc(Br)s1 [Compound 54] | 27 | 99 | 100 | – |
| O=c1[nH]cc(F)c(=O)[nH]1 [Compound 5FU, 5FLUORACIL] | – | – | – | percentage of growth (colonies vs control) (human tumor H5337 COLON; [4]): 62%; percentage of growth (colonies vs control) [2, 5]: 79%; percentage of growth (colonies vs control) (human tumor H5319 BREAST): 111%; percentage of growth (colonies vs control) (human tumor H5331 OVARY; [5]): 51%; percentage of growth (colonies vs control) (human tumor H5331 OVARY; [4]): 94%; percentage of growth (colonies vs control) [3, 5]: 83%; percentage of growth (colonies vs control) (human tumor H5349 BREAST; [5]): 117% |
| Cc1ccsc1C=C1C(=O)COC1=O [Compound 51, 3-[(3-methyl-2-thienyl)methylene]-2.4(3H.5H)-furandione] | 37 | 100 | 100 | – |
| CN(C)c1nc(N(C)C)nc(N(C)C)n1 [HXM, HEXAMETHYLMELAMINE] | – | – | – | percentage of growth (colonies vs control) (human tumor H5331 OVARY; [5]): 84%; percentage of growth (colonies vs control) (human tumor H5318 OVARY): 102% |
| O=C1CNC(=O)C1=Cc1ccc(Br)s1 [Compound 64] | 0 | 0 | 0 | – |
| N[C@@H](Cc1ccc(N(CCCl)CCCl)cc1)C(=O)O [MPL, MELPHALAN] | – | – | – | percentage of growth (colonies vs control) (human tumor H5337 COLON; [5]): 58%; percentage of growth (colonies vs control) (human tumor H5337 COLON; [4]): 76%; percentage of growth (colonies vs control) [2, 5]: 61%; percentage of growth (colonies vs control) [2, 4]: 54%; percentage of growth (colonies vs control) (human tumor H5330 THYMUS; [5]): 92%; percentage of growth (colonies vs control) (human tumor H5330 THYMUS; [4]): 31%; percentage of growth (colonies vs control) (human tumor H5319 BREAST): 85%; percentage of growth (colonies vs control) (human tumor H5331 OVARY; [5]): 76%; percentage of growth (colonies vs control) [3, 5]: 12%; percentage of growth (colonies vs control) (human tumor H5349 BREAST; [5]): 65%; percentage of growth (colonies vs control) (human tumor H5349 BREAST; [4]): 63% |
| CN(C)/N=N/c1[nH]cnc1C(N)=O [DTIC, DACARBAZINE] | – | – | – | percentage of growth (colonies vs control) (human tumor H5330 THYMUS; [5]): 59%; percentage of growth (colonies vs control) (human tumor H5330 THYMUS; [4]): 91% |
| CCOC(=O)c1ccc(C=C2C(=O)OC(C)(C)C2=O)s1 [Compound 61, 3-(5-carboxyethyl-2-thienyl)methylene1-5.5-dimethyl 11-2,4(3H)furandione] | 0 | 18 | 42 | – |
| Cc1ccc(C=CC=C2C(=O)COC2=O)s1 [Compound 53, 3-[(5-methyl-2-thienyl)propylenediene)-2,4(3H,5H)-furandione] | 0 | 71 | 99 | – |
| Cc1ccc(C=C2C(=O)CNC2=O)s1 [Compound 63, 3-[(5-methyl-2-thienyl)methylene] -2,4(3H.5H) pyrrolidinedione] | 0 | 0 | 0 | – |
| CN(C)c1ccc(C=C2C(=O)COC2=O)cc1 [Compound 57] | 17 | 94 | 96 | – |
| ACTINOMYCEN D | – | – | – | percentage of growth (colonies vs control) [3, 5]: 22%; percentage of growth (colonies vs control) [3, 4]: 6% |
| COc1cc([C@@H]2c3cc4c(cc3[C@@H](O[C@@H]3O[C@@H]5CO[C@@H](C)O[C@H]5[C@H](O)[C@H]3O)[C@H]3COC(=O)[C@H]23)OCO4)cc(OC)c1O [VP16] | – | – | – | percentage of growth (colonies vs control) (human tumor H5330 THYMUS; [5]): 77% |
| Cc1ccc(C=C2C(=O)CSC2=O)s1 [Compound 69] | 13 | 41 | 100 | – |
| COc1ccc(C=C2C(=O)COC2=O)c(OC)c1 [Compound 52, 3-[(2,4-dimethoxy-1-phenyl)methylene]-2,4(3H,5H)-furandione] | 8 | 38 | 95 | – |
| CCOC(=O)c1ccc(C=C2C(=O)COC2=O)s1 [Compound 45, 3-[(5-ethoxycarbonyl-2-thienyl)-methylene]-2,4(3H,5H) -furandione] | 0 | 0 | 100 | – |
| CCOC(=O)c1ccc(C=C2C(=O)CNC2=O)s1 [Compound 65] | 7 | 32 | 75 | – |
| O=C1COC(=O)C1=Cc1ccc(I)s1 [Compound 48, 3-[(5-iodo-2-thienyl)-methylene]-2.4(3H,5H)-furandione] | 0 | 0 | 98 | – |
| O=C1CSC(=O)C1=Cc1ccc(Br)s1 [Compound 70, 3-[(5-bromo-2-thienyl)methylene]-2.4(3H,5H)-1-thiophene dione] | 22 | 30 | 54 | – |
| Cc1ccsc1C=C1C(=O)CNC1=O [Compound 66, 3-(3-methyl-2-thienyl)methylene1-2,4(3H,5H) pyrrolidinedione] | 0 | 15 | 54 | – |
| O=C1COC(=O)C1=Cc1ccc(N2CCCCC2)s1 [Compound 56] | – | – | – | % Inhibition ([1]; 1.0 mcg/ml): 0%; % Inhibition ([1]; 5.0 mcg/ml): 0%; % Inhibition ([1]; 10.0 mcg/ml): 0% |
| O=C1COC(=O)C1=Cc1ccc(Cl)c(Cl)c1 [Compound 55, 3-[(3,4-dichloro-1-phenyl)methylene]-2,4(3H,5H) -furandione] | – | – | – | % Inhibition ([1]; 1.0 mcg/ml): 0%; % Inhibition ([1]; 5.0 mcg/ml): 0%; % Inhibition ([1]; 10.0 mcg/ml): 0% |
| Cc1ccc(C=C2C(=O)OC(C)(C)C2=O)s1 [Compound 58] | 51 | 97 | 100 | – |
| Cc1ccc(C=CC=C2C(=O)CNC2=O)s1 [Compound 67, 3-[(5-methyl-2-thienyl)propylenediene]-2,4(3H,5H) pyrrolidinedione] | 0 | 0 | 94 | – |
| O=C1COC(=O)C1=Cc1ccc(C(=O)O)s1 [Compound 50, 3-[(5-carboxy-2-thienyl)-methylene]-2,4(3H,5H)-furandione] | 0 | 0 | 0 | – |
| O=C1CNC(=O)C1=Cc1ccc(N2CCCCC2)s1 [Compound 68, 3-(5-N-piperdyl-2-thienyl)methylene1-2.4(3H.5H) pyrrolidinedione] | – | – | – | % Inhibition ([1]; 1.0 mcg/ml): 0%; % Inhibition ([1]; 5.0 mcg/ml): 0%; % Inhibition ([1]; 10.0 mcg/ml): 0% |
| Cc1ccsc1C=C1C(=O)OC(C)(C)C1=O [Compound 62, 3[(3-methyl-2-thienyl)methylene]-5,5dimethyl-2,4(3H,5H) furandione] | 6 | 99 | 100 | – |
| O=C1COC(=O)C1=Cc1ccc(Br)s1 [Compound 49] | 0 | 0 | 98 | – |
